Experiments:
Enterococcus sp. = test: in vitro antibacterial evaluation, MIC by broth dilution; type: cell-based; settings: broth dilution, 18 hours at 35° C.
Procedure, shortened: (§1)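 Broth dilution per NCCLS standard M7-A2 in Muller-Hinton II […], with an inoculum of 5×10^5 CFU/mL and antibiotic spanning 64-0.06 μg/mL. The MIC is the lowest concentration that inhibits growth of the organism.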

Escherichia coli = test: as above; type: cell-based; settings: 18 hours at 35° C.
Procedure, shortened: as §1

Staphylococcus sp. = test: as above; type: cell-based; settings: broth dilution, 18 hours at 35° C.
Procedure, shortened: as §1

Streptococcus sp. = test: as above; type: cell-based; settings: broth dilution, 18 hours at 35° C.
Procedure, shortened: as §1

[1] = test system: Staphylococcus aureus-SMITH (GC 4543); test: acute lethal infection in mice; type: in vivo; settings: acute lethal infection, female CD-1 mice, intraperitoneal challenge, intravenous 30 min. after infection, 7 day survival
Procedure, shortened: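 ED50 from 7 day survival ratios pooled over 3 separate tests. Female CD-1 mice, 20+/−2 gm, ip bacterial challenge (trypticase soy broth or hog gastric mucin) lethal to untreated controls in 24-48 hr; iv dosing 30 min after infection in saline or 5% dextrose, n=5/dose.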

CC(c1ccccc1)C1NC(=O)CNC(=O)C(CO)NC(=O)C(C(O)C2CNC(=N)N2C2OC(CO)C(O)C(O)C2O)NC(=O)C(C(O)C2CNC(=N)N2)NC(=O)C(Cc2ccc(OC3OC(CO)C(OC4OC5COC(Cc6ccc(Cl)cc6)OC5C(O)C4O)C(O)C3O)cc2)NC1=O (stereo not drawn) [Example 120, Cyclo[glycyl-β-methylphenylalanyl-O-[4-O-[4,6-O-(4-chlorophenethylidene)hexopyranosyl]-hexopyranosyl]tyrosyl-3-(2-iminoimidazolidin-4-yl)seryl-3-(3-hexopyranosyl-2-iminoimidazolidin-4-yl)serylseryl]]
0.06 mg/kg: median effective dose (ED50), Staphylococcus aureus-SMITH (GC 4543) [1]
16 µg/mL: MIC Escherichia coli (ATCC 25922) (Escherichia coli; strain ATCC 25922) | MIC Escherichia coli (GC 4559) (Escherichia coli; strain GC 4559)
<0.5 µg/mL: MIC Escherichia coli (GC 4560) (Escherichia coli; strain GC 4560) | MIC Coagulase Negative Staphylococcus (GC 4548) (Staphylococcus sp.) | MIC Coagulase Negative Staphylococcus (GC 4549) (Staphylococcus sp.) | MIC Coagulase Negative Staphylococcus (GC 4551) (Staphylococcus sp.) | MIC Coagulase Negative Staphylococcus (GC 6257) (Staphylococcus sp.) | MIC Staphylococcus aureus (ATCC 29213) (Staphylococcus sp.) | MIC Staphylococcus aureus (GC 1131) (Staphylococcus sp.) | MIC Staphylococcus aureus (GC 3051) (Staphylococcus sp.) | MIC Staphylococcus aureus (GC 4541) (Staphylococcus sp.) | MIC Staphylococcus aureus (GC 4542) (Staphylococcus sp.) | MIC Staphylococcus aureus (GC 4544) (Staphylococcus sp.) | MIC Staphylococcus aureus (GC 4545) (Staphylococcus sp.) | MIC Staphylococcus aureus-SMITH (GC 4543) (Staphylococcus sp.) | MIC Staphylococcus haemolyticus (GC 4546) (Staphylococcus sp.) | MIC Staphylococcus aureus (GC 1131) (Staphylococcus sp.; inoculum 5×10^5 CFU/mL, strain GC 1131) | MIC Staphylococcus aureus (ATCC 29213) (Staphylococcus sp.; strain ATCC 29213) | MIC Staphylococcus aureus (GC 3051) (Staphylococcus sp.; strain GC 3051) | MIC Staphylococcus aureus (GC 4541) (Staphylococcus sp.; strain GC 4541) | MIC Staphylococcus aureus (GC 4542) (Staphylococcus sp.; strain GC 4542) | MIC Staphylococcus aureus (GC 4544) (Staphylococcus sp.; strain GC 4544) | MIC Staphylococcus aureus (GC 4545) (Staphylococcus sp.; strain GC 4545) | MIC Staphylococcus haemolyticus (GC 4546) (Staphylococcus sp.; strain GC 4546) | MIC Coagulase Negative Staphylococcus (GC 4548) (Staphylococcus sp.; strain GC 4548) | MIC Coagulase Negative Staphylococcus (GC 4549) (Staphylococcus sp.; strain GC 4549) | MIC Coagulase Negative Staphylococcus (GC 4551) (Staphylococcus sp.; strain GC 4551) | MIC Coagulase Negative Staphylococcus (GC 6257) (Staphylococcus sp.; strain GC 6257) | MIC Staphylococcus aureus-SMITH (GC 4543) (Staphylococcus sp.; strain SMITH GC 4543) | MIC Streptococcus agalactiae (GC 4564) (Streptococcus sp.; Streptococcus agalactiae (GC 4564)) | MIC Streptococcus pneumoniae (ATCC 6301) (Streptococcus sp.; Streptococcus pneumoniae (ATCC 6301)) | MIC Streptococcus pneumoniae (GC 1894) (Streptococcus sp.; Streptococcus pneumoniae (GC 1894)) | MIC Streptococcus pneumoniae (GC 4565) (Streptococcus sp.; Streptococcus pneumoniae (GC 4565)) | MIC Streptococcus pyogenes (GC 4563) (Streptococcus sp.; Streptococcus pyogenes (GC 4563)) | MIC Streptococcus pneumoniae (ATCC 6301) (Streptococcus sp.; strain ATCC 6301) | MIC Streptococcus pneumoniae (GC 1894) (Streptococcus sp.; strain GC 1894) | MIC Streptococcus pyogenes (GC 4563) (Streptococcus sp.; strain GC 4563) | MIC Streptococcus agalactiae (GC 4564) (Streptococcus sp.; strain GC 4564) | MIC Streptococcus pneumoniae (GC 4565) (Streptococcus sp.; strain GC 4565)
1 µg/mL: MIC Enterococcus avium (GC 4558) (Enterococcus sp.; Enterococcus avium (GC 4558)) | MIC Enterococcus faecalis (ATCC 29212) (Enterococcus sp.; Enterococcus faecalis (ATCC 29212)) | MIC Enterococcus faecalis (GC 2242) (Enterococcus sp.; Enterococcus faecalis (GC 2242)) | MIC Enterococcus faecalis (GC 2691) (Enterococcus sp.; Enterococcus faecalis (GC 2691)) | MIC Enterococcus faecalis (GC 3059) (Enterococcus sp.; Enterococcus faecalis (GC 3059)) | MIC Enterococcus faecalis (GC 4552) (Enterococcus sp.; Enterococcus faecalis (GC 4552)) | MIC Enterococcus faecalis (GC 4553) (Enterococcus sp.; Enterococcus faecalis (GC 4553)) | MIC Enterococcus faecalis (GC 4554) (Enterococcus sp.; Enterococcus faecalis (GC 4554)) | MIC Enterococcus faecalis (GC 6189) (Enterococcus sp.; Enterococcus faecalis (GC 6189)) | MIC Enterococcus faecium (GC 2243) (Enterococcus sp.; Enterococcus faecium (GC 2243)) | MIC Enterococcus faecium (GC 4556) (Enterococcus sp.; Enterococcus faecium (GC 4556)) | MIC Enterococcus faecium (GC 4557) (Enterococcus sp.; Enterococcus faecium (GC 4557)) | MIC Enterococcus faecalis (ATCC 29212) (Enterococcus sp.; strain ATCC 29212) | MIC Enterococcus faecalis (GC 2242) (Enterococcus sp.; strain GC 2242) | MIC Enterococcus faecium (GC 2243) (Enterococcus sp.; strain GC 2243) | MIC Enterococcus faecalis (GC 2691) (Enterococcus sp.; strain GC 2691) | MIC Enterococcus faecalis (GC 3059) (Enterococcus sp.; strain GC 3059) | MIC Enterococcus faecalis (GC 4552) (Enterococcus sp.; strain GC 4552) | MIC Enterococcus faecalis (GC 4553) (Enterococcus sp.; strain GC 4553) | MIC Enterococcus faecalis (GC 4554) (Enterococcus sp.; strain GC 4554) | MIC Enterococcus faecium (GC 4556) (Enterococcus sp.; strain GC 4556) | MIC Enterococcus faecium (GC 4557) (Enterococcus sp.; strain GC 4557) | MIC Enterococcus avium (GC 4558) (Enterococcus sp.; strain GC 4558) | MIC Enterococcus faecalis (GC 6189) (Enterococcus sp.; strain GC 6189) | MIC Coagulase Negative Staphylococcus (GC 4547) (Staphylococcus sp.) | MIC Staphylococcus aureus (GC 3053) (Staphylococcus sp.) | MIC Staphylococcus aureus (GC 3053) (Staphylococcus sp.; strain GC 3053) | MIC Coagulase Negative Staphylococcus (GC 4547) (Staphylococcus sp.; strain GC 4547)
